Experimental data taken from US4668770A, “Renin inhibitory tripeptides” (Merck & Co., Inc., priority 1984, dated 1987).
Non-standard residues stand in square brackets, D forms with d. Residues, ends and D or L forms follow the SMILES beside them. *: point of attachment. Sta = CC(C)C[C@H](N)[C@@H](O)CC(=O)O; Phenoxyacetyl = O=C(COc1ccccc1)*; Boc = CC(C)(C)OC(=O)*

Experiments:
hog kidney renin = hog kidney renin (Sus scrofa, UniProt A0A287APG1); test: Hog renin inhibition; format: biochemical; conditions: for IC50: pH 7.3, concentration producing 50% inhibition of renin activity, read-out: I50
Method: An assay was carried out in order to determine the inhibitory potency of the peptides of the present invention. The assay measured the inhibition of hog kidney renin, and was in accordance with the procedure described in Rich et al., J. Med. Chem. 23: 27, 1980, except that a pH of 7.3 was used. The results of the assay, illustrated in the table below, are expressed as I50 values, which refers to the concentration of peptide inhibitor necessary to produce 50% inhibition of renin activity. This I50 value is obtained typically by plotting data from four inhibitor concentrations.

human kidney renin = target: T1, human kidney renin (Homo sapiens, UniProt P00797); test: Human renin inhibition; format: biochemical; conditions: purified human kidney renin; dissociation constant of the inhibited enzyme-inhibitor complex
T1 construct: human kidney renin purified as described in Bangham; from tissue; host or cells: human kidney
T1 sequence (P00797 67-406): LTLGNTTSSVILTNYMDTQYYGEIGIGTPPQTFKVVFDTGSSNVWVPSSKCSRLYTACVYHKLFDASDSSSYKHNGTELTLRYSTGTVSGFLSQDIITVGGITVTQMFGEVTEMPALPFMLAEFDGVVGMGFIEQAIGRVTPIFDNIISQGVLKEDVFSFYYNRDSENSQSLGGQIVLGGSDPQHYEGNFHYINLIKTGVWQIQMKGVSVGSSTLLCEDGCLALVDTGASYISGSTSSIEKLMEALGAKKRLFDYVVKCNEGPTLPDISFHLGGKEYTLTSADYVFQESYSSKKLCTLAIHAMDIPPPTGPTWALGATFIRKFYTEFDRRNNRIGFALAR
Method: An assay was carried out in order to determine the inhibitory potency of the peptides of the present invention. The assay measured the inhibition of human kidney renin purified as described in Bangham, D. R., Robertson, I., Robinson, J. I. S., Robinson, C. J., and Tree, M., Clinical Science and Molecular Medicine, 48 (Supp. 2): 136s-159s (1975), and further purified by affinity chromatography on pepstatin-aminohexyl-Sepharase as described in Poe, M., Wu., J. K., Florance, J. R., Radkey, J. A., Bennett, C. D., and Hoagsteen, K., J. Biol. Chem. (1982, in press). The assay was also in accordance with Poe et al. cited above. Results are expressed as KI values, which refer to the dissociation constant of the inhibited enzyme--inhibitor complex. This KI value was obtained as described above. […]

Chain of hog kidney renin (A0A287APG1 67-407): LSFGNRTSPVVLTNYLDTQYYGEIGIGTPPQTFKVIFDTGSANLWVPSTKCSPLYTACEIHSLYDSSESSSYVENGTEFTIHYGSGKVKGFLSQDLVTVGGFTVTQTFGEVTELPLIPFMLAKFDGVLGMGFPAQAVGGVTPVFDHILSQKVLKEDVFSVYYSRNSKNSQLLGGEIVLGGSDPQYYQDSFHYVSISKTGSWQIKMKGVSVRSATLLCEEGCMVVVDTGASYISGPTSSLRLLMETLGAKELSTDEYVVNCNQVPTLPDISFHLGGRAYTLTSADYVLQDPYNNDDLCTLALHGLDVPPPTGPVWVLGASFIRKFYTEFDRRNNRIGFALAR

Compound	IC50 (hog kidney renin) [nM]	Ki (human kidney renin) [nM]	also measured
CC(C)C[C@H](NC(=O)C[C@H](O)[C@H](CC(C)C)NC(=O)[C@H](Cc1c[nH]cn1)NC(=O)C(CCc1ccccc1)Cc1ccccc1)C(=O)NCc1ccccc1 (stereo partly drawn) [2-phenethyl-3-phenylpropionyl-His-Sta-Leu-benzylamide]	370	–	–
CC(C)C[C@H](NC(=O)C[C@H](O)[C@H](CC(C)C)NC(=O)[C@H](Cc1c[nH]cn1)NC(=O)OC(C)(C)C)C(=O)N[C@@H](Cc1ccccc1)C(N)=O [BOC--His--Sta--Leu--Phe--amide, BOC^1 -His-Sta-Leu-Phe-amide] (Boc-H[Sta]LF-NH2)	400000	–	–
CC(C)CC=CC(Cc1ccccc1)C(=O)N[C@@H](Cc1c[nH]cn1)C(=O)N[C@@H](CC(C)C)[C@@H](O)CC(=O)N[C@@H](CC(C)C)C(=O)NCc1ccccc1 (stereo partly drawn) [2-(4,4-dimethyl-1-butenyl)-3-phenylpropionyl-His-Sta-Leu-benzylamide]	610	–	–
CC(C)C[C@H](NC(=O)C[C@H](O)[C@H](CC(C)C)NC(=O)[C@H](Cc1c[nH]cn1)NC(=O)C(CCCc1ccccc1)Cc1ccccc1)C(=O)NCc1ccccc1 (stereo partly drawn) [2-phenylpropyl-3-phenylpropionyl-His-Sta-Leu-benzylamide]	31	97	–
CC(C)C[C@H](NC(=O)C[C@H](O)[C@H](CC(C)C)NC(=O)[C@H](Cc1c[nH]cn1)NC(=O)C(C)Cc1ccccc1)C(=O)NCc1ccccc1 (single isomer, unassigned) [2-methyl-3-phenylpropionyl-His--Sta--Leu--benzylamide ("A" Isomer), 2-methyl-3-phenylpropionyl-His-Sta-Leu-benzylamide]	–	–	inhibition at 1.3 µM (hog kidney renin; pH 7.3, at 1.3 × 10^-6 M, read-out: inhibition of renin activity at 1.3 × 10^-6 (printed in the I50 column)): 15%
CC(C)C[C@H](NC(=O)C[C@H](O)[C@H](Cc1ccccc1)NC(=O)[C@H](Cc1c[nH]cn1)NC(=O)COc1ccccc1)C(=O)NCc1ccccc1 [POA--His--AHPPA--Leu--benzylamide, Phenoxyacetyl-L-histidyl-(3S,4S)-AHPPA-L-leucyl-benzylamide]	20	10	–
CC(C)C[C@H](NC(=O)C[C@H](O)[C@H](Cc1ccccc1)NC(=O)[C@H](Cc1c[nH]cn1)NC(=O)C(Cc1ccccc1)Cc1ccccc1)C(=O)NCc1ccccc1 [2-benzyl-3-phenylpropionyl-His-AHPPA-Leu-benzylamide]	2.6	34	–
CC(C)C[C@H](NC(=O)C[C@H](O)[C@H](CC(C)C)NC(=O)[C@H](Cc1c[nH]cn1)NC(=O)C(Cc1ccccc1)Cc1ccccc1)C(=O)NCc1ccccc1 [2-benzyl-3-phenylpropionyl-His-Sta-Leu-benzylamide]	150	830	–
CC(C)C[C@H](NC(=O)C[C@H](O)[C@H](CC(C)C)NC(=O)[C@H](Cc1c[nH]cn1)NC(=O)COc1ccccc1)C(=O)N[C@@H](Cc1ccccc1)C(N)=O [POA--His--Sta--Leu--Phe--amide, POA-His-Sta-Leu-Phe-amide] (Phenoxyacetyl-H[Sta]LF-NH2)	7600	–	–
COC(=O)[C@H](Cc1ccccc1)NC(=O)[C@H](CC(C)C)NC(=O)C[C@H](O)[C@H](CC(C)C)NC(=O)[C@H](Cc1c[nH]cn1)NC(=O)COc1ccccc1 [POA--His--Sta--Leu--Phe--methyl ester, POA^2 -His-Sta-Leu-Phe-methyl ester] (Phenoxyacetyl-H[Sta]LF-OMe)	3300	–	–
CC[C@H](C)[C@H](NC(=O)C[C@H](O)[C@H](CC1CCCCC1)NC(=O)[C@H](Cc1c[nH]cn1)NC(=O)COc1ccccc1)C(=O)NCc1ccccc1 [POA--His--ACHPA--Ile--benzylamide, POA-His-ACHPA-Ile-benzylamide]	290	–	–
CC(C)C[C@H](NC(=O)C[C@H](O)[C@H](CC(C)C)NC(=O)[C@H](Cc1c[nH]cn1)NC(=O)C(C=Cc1ccccc1)Cc1ccccc1)C(=O)NCc1ccccc1 (stereo partly drawn) [2-phenethenyl-3-phenylpropionyl-His-Sta-Leu-benzylamide]	260	–	–
CC(C)C[C@H](NC(=O)C[C@H](O)[C@H](CC(C)C)NC(=O)[C@H](Cc1c[nH]cn1)NC(=O)C(Cc1ccccc1)c1ccccc1)C(=O)NCc1ccccc1 (stereo partly drawn) [2,3-diphenylpropionyl-His-Sta-Leu-benzylamide]	2200	900	–
CC(C)C[C@H](NC(=O)C[C@H](O)[C@H](CC(C)C)NC(=O)[C@H](Cc1c[nH]cn1)NC(=O)C(CCCCc1ccccc1)Cc1ccccc1)C(=O)NCc1ccccc1 (stereo partly drawn) [2-phenylbutyl-3-phenylpropionyl-His-Sta-Leu-benzylamide]	520	17	–
CC[C@H](C)[C@H](NC(=O)C[C@H](O)[C@H](CC1CCCCC1)NC(=O)[C@H](Cc1c[nH]cn1)NC(=O)COc1ccccc1)C(=O)NCc1ccccn1 [POA-His-ACHPA-Ile-2-pyridylmethylamide]	1400	–	–
CC(C)C[C@H](NC(=O)C[C@H](O)[C@H](CC(C)C)NC(=O)[C@H](Cc1c[nH]cn1)NC(=O)CCc1ccccc1)C(=O)NCc1ccccc1 [3-phenylpropionyl-His-Sta-Leu-benzylamide]	–	–	inhibition at 0.1 µM (hog kidney renin; pH 7.3, at 10^-7 M, read-out: inhibition of renin activity at 10^-7 (printed in the I50 column)): 2%
CC(C)C[C@H](NC(=O)C[C@H](O)[C@H](Cc1ccccc1)NC(=O)[C@H](Cc1c[nH]cn1)NC(=O)CCc1ccccc1)C(=O)NCc1ccccc1 [3-phenylpropionyl-His-AHPPA-Leu-benzylamide]	35	71	–
His-Sta-Ala-Phe-methyl ester [His--Sta--Ala--Phe--methyl ester]	–	–	inhibition of renin activity at 10^-4 (printed in the I50 column) (hog kidney renin; pH 7.3, at 10^-4 M): 5%
CC(C)C[C@H](NC(=O)C[C@H](O)[C@H](CC(C)C)NC(=O)[C@H](Cc1c[nH]cn1)NC(=O)C(C)Cc1ccccc1)C(=O)NCc1ccccc1 (single isomer, unassigned) [2-methyl-3-phenylpropionyl-His--Sta--Leu--benzylamide ("B" Isomer), 2-methyl-3-phenylpropionyl-His-Sta-Leu-benzylamide]	940	–	–
CC(C)C[C@H](NC(=O)C[C@H](O)[C@H](Cc1ccccc1)NC(=O)[C@H](Cc1c[nH]cn1)NC(=O)C(CCCc1ccccc1)Cc1ccccc1)C(=O)NCc1ccccc1 (stereo partly drawn) [2-phenylpropyl-3-phenylpropionyl-His-AHPPA-Leu-benzylamide]	8.1	23	–
CC(C)C[C@H](NC(=O)C[C@H](O)[C@H](CC1CCCCC1)NC(=O)[C@H](Cc1c[nH]cn1)NC(=O)COc1ccccc1)C(=O)N[C@@H](Cc1ccccc1)C(N)=O [POA--His--ACHPA--Leu--Phe--amide, POA-His-ACHPA^4 -Leu-Phe-amide]	510	1.1	–
COC(=O)[C@H](Cc1ccccc1)NC(=O)[C@H](CC(C)C)NC(=O)C[C@H](O)[C@H](CC(C)C)NC(=O)[C@@H](N)Cc1c[nH]cn1 [His--Sta--Leu--Phe--methyl ester, His-Sta-Leu-Phe-methyl ester] (H-H[Sta]LF-OMe)	14000	–	–
CCC(Cc1ccccc1)C(=O)N[C@@H](Cc1c[nH]cn1)C(=O)N[C@@H](CC(C)C)[C@@H](O)CC(=O)N[C@@H](CC(C)C)C(=O)NCc1ccccc1 (stereo partly drawn) [2-ethyl-3-phenylpropionyl-His-Sta-Leu-benzylamide]	1400	–	–
CC(C)C[C@H](NC(=O)[C@H](Cc1c[nH]cn1)NC(=O)COc1ccccc1)[C@@H](O)CC(=O)N[C@@H](Cc1ccccc1)C(=O)N[C@@H](Cc1ccccc1)C(N)=O [POA--His--Sta--Phe--Phe--amide, POA-His-Sta-Phe-Phe-amide] (Phenoxyacetyl-H[Sta]FF-NH2)	40000	–	–
